In US20260130395A1, “Water Dispersible Botanical Compositions” (Aquila Black Limited, priority 2021, published 2026):

Assay: Stability of cannabinoid compounds and Vitamin E components in Beverage 2 (AB Red) by LCMSMS
Type: physicochemical

Measured: Stability of Vitamin Es in AB Red

Cc1c(C)c2c(c(C)c1OC(=O)CCC(=O)O)CC[C@@](C)(CCC[C@H](C)CCC[C@H](C)CCCC(C)C)O2 [α-Tocopheryl succinate]
10.3 µg/mL: stored at 21-25° C., 540 days
12.1 µg/mL: stored at 8° C., 11 days | stored at 21-25° C., 18 days | stored at 21-25° C., 26 days | stored at 21-25° C., 30 days
11.4 µg/mL: stored at 8° C., 60 days | stored at 8° C., 180 days | stored at 8° C., 210 days | stored at 21-25° C., 150 days | stored at 21-25° C., 300 days | stored at 21-25° C., 330 days
10.8 µg/mL: stored at 8° C., 510 days | stored at 21-25° C., 390 days
10.4 µg/mL: stored at 21-25° C., 480 days
12.4 µg/mL: stored at 8° C., 17 days | stored at 8° C., 30 days | stored at 21-25° C., 12 days | stored at 21-25° C., 24 days | stored at 21-25° C., 29 days
12.7 µg/mL: stored at 8° C., 12 days | stored at 21-25° C., 23 days
11.3 µg/mL: stored at 8° C., 360 days
11.1 µg/mL: stored at 21-25° C., 360 days
11.6 µg/mL: stored at 8° C., 29 days | stored at 8° C., 240 days | stored at 21-25° C., 15 days | stored at 21-25° C., 16 days | stored at 21-25° C., 22 days | stored at 21-25° C., 90 days | stored at 21-25° C., 210 days | stored at 21-25° C., 240 days
12.6 µg/mL: stored at 8° C., 8 days | stored at 8° C., 10 days | stored at 21-25° C., 17 days
12.2 µg/mL: stored at 8° C., 24 days | stored at 8° C., 120 days
12.0 µg/mL: stored at 8° C., 23 days | stored at 8° C., 25 days | stored at 21-25° C., 2 days | stored at 21-25° C., 8 days | stored at 21-25° C., 10 days | stored at 21-25° C., 11 days
11.7 µg/mL: stored at 8° C., 1 days | stored at 8° C., 2 days | stored at 8° C., 3 days | stored at 8° C., 19 days | stored at 8° C., 330 days | stored at 21-25° C., 9 days | stored at 21-25° C., 60 days
11.8 µg/mL: stored at 8° C., 9 days
12.3 µg/mL: stored at 21-25° C., 180 days
11.5 µg/mL: stored at 8° C., 5 days | stored at 8° C., 16 days | stored at 8° C., 90 days | stored at 8° C., 150 days | stored at 8° C., 270 days | stored at 21-25° C., 120 days
11.2 µg/mL: stored at 8° C., 300 days | stored at 8° C., 390 days | stored at 8° C., 450 days | stored at 21-25° C., 450 days
12.5 µg/mL: stored at 8° C., 0 days | stored at 8° C., 15 days | stored at 8° C., 26 days | stored at 21-25° C., 0 days | stored at 21-25° C., 1 days
11.9 µg/mL: stored at 8° C., 18 days | stored at 8° C., 22 days | stored at 21-25° C., 3 days | stored at 21-25° C., 5 days | stored at 21-25° C., 19 days | stored at 21-25° C., 25 days
11.0 µg/mL: stored at 8° C., 420 days | stored at 21-25° C., 270 days | stored at 21-25° C., 420 days
10.9 µg/mL: stored at 8° C., 480 days | stored at 8° C., 540 days
10.6 µg/mL: stored at 8° C., 570 days | stored at 21-25° C., 510 days | stored at 21-25° C., 570 days
